Two compounds from US9150608B2, “Neuro-protective compounds and their use” (Biotechnology Research Corp. Ltd., priority 2010, dated 2015) can be followed below.

For one test, the system named is cleaved-caspase-3. Put plainly: Caspase-3 expression in cortical neurons in the presence of amyloid-beta peptide (Western blot). The class given is cell-based, rat. As to conditions: 10-50 μg/mL in the presence of Aβ25-35 (10 μM), overnight. As for the experimental part:
FIG. 5. Adelostemma gracillimum refined fraction inhibits caspase-3 production in primary cortical neurons induced by Aβ. Primary cortical neuron cultures (7DIV) were treated with various concentrations of AG-0 (10-50 μg/mL) in the presence of Aβ25-35 (10 μM). Proteins were extracted after overnight incubation and Western blot analysis was performed. Blots were probed with antibodies against caspase-3 and ERK protein. Staurosporine (STS, 10 μM) was used as a positive control, while DMSO served as the vehicle control.
The cells were then incubated with test samples and amyloid-beta peptide fragment 25-35 (Aβ, 10 uM, Sigma) in growth medium.
A general note: A western blot detects proteins with antibodies after separation by electrophoresis.

The test system of test [1] is Aβ25-35-treated primary cortical neurons. Put plainly: Cortical neuron survival assay with amyloid-beta peptide insult (MTT). The format is cell-based, rat. To be noted: for cell survival of cortical neurons treated with Aβ25-35 (MTT): 50 μM, except GAG-C69 at 30 μM, Aβ25-35 10 μM (FIG. 19). As for the experimental part: FIG. 4. […] After overnight incubation, the MTT assay was performed. Cell survival was calculated as a percentage compared to vehicle control (“CTL no Abeta”).
Exogenous addition of amyloid beta peptide (Aβ) initiates cell death of neuronal cultures via apoptosis.
The cells were then incubated with test samples and amyloid-beta peptide fragment 25-35 (Aβ, 10 μM, Sigma) in growth medium. A tetrazole, 3-(4,5-Dimethylthiazol-2-yl)-2,5-diphenyltetrazolium bromide (MTT, 5 mg/ml) was added to the medium at a ratio of 1:10 after 24-hr incubation. MTT is reduced by living cells into purple formazan and further solubilized in 20% SDS solution; therefore, the colored solution was measured by spectrophotometer and cell viability was quantified.

Test [2] concerns cyclic AMP response (CRE) element. Kind of test: CRE-dependent transcription assay (luciferase). The class given is cell-based, rat. As to conditions: hippocampal neurons 12DIV, 50 μM, 6 hours. As for the experimental part: FIG. 41. GAG compounds enhance CRE-dependent transcription activity. GAG-C14 (a), GAG-C53 (b), GAG-C63 (c), GAG-C69 (d), GAG-C84 (e), GAG-C111 (f), GAG-C122 (g), GAG-C123 (h), and GAG-C129 (i) induce CRE-dependent transcriptional activity in cultured hippocampal neurons. On the day of cell seeding, hippocampal neurons were transfected with a firefly luciferase reporter plasmid containing cyclic AMP response (CRE)-element. The cells at 12 DIV were then treated with 50 μM of AG compounds for 6 hours. Data are mean±SEM (n=3-4), *=P<0.05, **=P<0.01, and ***=P<0.005 versus vehicle-treated cells (0 μM), student's t test.
Cultured hippocampal neurons were transfected with a firefly luciferase reporter plasmid containing a cyclic AMP response (CRE) element. At 12DIV, the cells were treated with 50 μM of compound for 6 hours, then CRE-dependent transcription activity was assayed by measuring luciferase levels.
Freshly isolated embryonic cortical neurons were transfected with a luciferase reporter gene (Cre-Luc) linked to CREB activation following the ACM lipofectamine method using Lipofectamine 2000, a cationic liposome based reagent (Invitrogen). […] Transfection was performed using 1 μL Lipofectamine 2000 and 0.4 μg DNA per well. Neurons were then treated with test samples for time periods of 6 hours. After treatment, the cells were washed with ice-cold DPBS and 100 μL of 1× luciferase lysis buffer (Promega) was added. The plates were placed in −20° C. to freeze the cells, after which they were thawed to facilitate lysis. The lysates were transferred onto white bottom plates and assayed for renilla luciferase using the luciferase assay kit (Promega). Increased CREB activation in the neurons leads to an enhanced luciferase production and this was quantified using a Promega GloMax™ 96 microplate luminometer. […] BDNF and rolipram were used as positive controls.

In the next test the test system is NMDA receptor. Kind of test: Whole-cell patch clamp. The format is cell-based, rat. To be noted: hippocampal neurons, −70 mV. As for the experimental part:
FIG. 31. GAG-C73 inhibits NMDA-induced current in hippocampal neurons. The effects of GAG-C73 on NMDA-activated currents in rat hippocampal neurons (11DIV) were examined using whole-cell patch clamp studies. Addition of NMDA induced depolarization and initiated an inward current in pyramidal cells. A. Examples of NMDA-activated currents before, during, and after application of GAG-C73 (30 μM) are shown. Horizontal bars denote GAG-C73 application. B-C. […] DMSO was used as a solvent control. The concentration of glycine was 0.1 μM, and membrane potential was held at −70 mV. n=10; three independent experiments were performed. *=P<0.05.
The NMDA receptor is a gated ion channel, which allows inflow of current during a nerve impulse. Antagonists to the receptor would prevent the inflow of current.
Hippocampal neurons were plated onto PDL-coated 35 mm dishes (NUNC) at a density of 3×10^5 cells per plate. Half of the medium was changed with NB, B27 and […] L-glutamine every 2 to 3 days. On day 12 in vitro (12DIV), whole-cell patch clamp study was performed. […] Holding potential of patched cells was kept at −70 mV and currents were recorded using Axopatch-200B amplifier (Axon Instruments, USA). […] Data was analyzed by pClamp9 software and percentage of inhibition on NMDA-induced current was' represented in comparison to a DMSO solvent control.
In general terms: Patch clamp records ionic current or voltage across a cell membrane.

Test [3] deals with glutamate-induced excitotoxicity in cortical neurons. Put plainly: Glutamate survival assay (LDH release). As to conditions: 30 μM; glutamate 10-200 μM, all concentrations examined. The class given is cell-based, rat. As for the experimental part: FIG. 34. GAG-C73 decreases primary neuron cell death induced by high doses of glutamate. Cortical neurons were incubated with GAG-C73 (30 μM) or DMSO control for 2 hrs, followed by co-treatment with differing concentrations of glutamate (10-200 μM) for 20 min. LDH release into the medium was then measured.
Glutamate is the physiological neurotransmitter that activates NMDA receptors. However, excess amounts of glutamate can result in excitotoxicity and potential cell death. Survival assays were conducted to determine the ability of GAG-C73 to effectively protect neuronal cells from glutamate-induced excitotoxicity.
(Release of lactate dehydrogenase indicates damage to the cell membrane.)

Test [4] has as its system NMDA receptor-induced excitotoxicity in primary cortical neuronal cells. Kind of test: NMDA survival assay (LDH release).
Experimental: Embryonic rat cortical neurons (11 DIV) were pre-treated with various concentrations of AG—0 (0.1 -30 μg/mL) and then co-incubated with NMDA (20 μM). After 20 min, the medium was replaced with fresh medium, and after overnight incubation lactate dehydrogenase (LDH) released into the medium was measured. Cell death was calculated as a percentage compared to solvent control (“CTL without NMDA”). Assays were conducted in duplicate and repeated at least twice. *=P<0.05.
Cortical neurons were plated on 48-well plate (Nunc) at a density of 1.1×10^5 cells per well and cultured for 11-12 days (11-12 DIV). Neurons were pre-treated with the test compounds for 2 hours prior to N-Methyl-D-Aspartate (NMDA, Sigma) or glutamate (MSG, Sigma) treatment. Briefly, the neurons were rinsed with Locke's solution (5 mM potassium chloride, 128 mM sodium chloride, 2.7 mM calcium chloride, 1 mM di-sodium hydrogen orthophosphate, 5 mM HEPES and 10 mM glucose in Milli-Q water) without Mg^2+, followed by incubation in Locke's solution with addition of glycine (0.1 μM) for 15 minutes. After the incubation, the neurons were co-treated with the test compound (dissolved in Locke's plus glycine solution) and NMDA (20 μM) or glutamate for 20 min. Neurons were then rinsed with Locke's solution containing Mg^2+ and replaced with fresh growth medium. Cell death was assayed and quantified using the lactate dehydrogenase release assay (Cytotoxicity Detection Kit, Roche). Data was compared to a DMSO vehicle control and represented in mean±SEM. The student t-test was used for statistical analysis.
Test [5] relates to phosphorylated ERK, CREB, Akt, P38, MEK in cortical neurons. Kind of test: Western blot detection of signaling proteins in cortical neurons. As to conditions: cortical neurons 7DIV, 0.1-10 μM, 15 min (FIGS. 16, 18, 20). The class given is cell-based, rat.

SMILES strings stand for the structures.

On to `C/C=C/c1ccc2c(c1)OC(c1ccc(O)c(OC)c1)C(C)O2` (stereo not drawn) [GAG-C69, 3-methoxyl-4-hydroxyl-(7′-E)-5′7-epoxy-8,4′-oxyneolignane-7′ en], for which the “expression level of cleaved-caspase-3 (17 kDa, active form)” value with cleaved-caspase-3 is reported as “significantly decreased to levels comparable to that without Aβ”. The “cell survival of cortical neurons treated with Aβ25-35 (MTT)” value in test [1] was “promoted cell survival”. Also, the “survival of neurons against Aβ insult (MTT)” value in test [1] (various concentrations, Aβ25-35 10 μM) was “increases the survival of neurons against Aβ insult comparable to control levels”. In test [2], the “CRE-dependent transcription activity (luciferase)” value is reported as “enhances CRE-dependent transcription”.

Take `C=C(C)[C@@H]1CCC2(C(=O)O)CC[C@]3(C)C(=CCC4[C@@]5(C)CCC(O)[C@@](C)(CO)C5CC[C@]43C)C12` (stereo partly drawn) [GAG-C73, 3,23-dihydroxyl-12(13)-en-Lup-20(29)-en-28-oic acid]: the “NMDA-induced current (peak and plateau)” value with NMDA receptor (30 μM co-treatment with NMDA) was “reduced the current induced by NMDA, for both peak and plateau currents”. Moreover, the “NMDA-induced current with increasing doses” value in the test with NMDA receptor was “further decreased the NMDA-induced current”. Besides, in test [1], the “cell survival of cortical neurons treated with Aβ25-35 (MTT)” value is “promoted cell survival”. Further, the “cell death compared to the DMSO control (LDH)” value in test [3] is “significant reduction in cell death”; in test [4] (30 μM, NMDA 5-100 μM, at toxic dosages of NMDA) it was “significant reduction in cell death”; in test [4] (varying concentrations pre-treated 2 hrs, NMDA 20 μM) it was “significant dose-dependent reduction in cell death”. Also, the “neuronal survival following NMDA treatment (LDH)” value in test [4] (30-50 μM pre-treated 2 hours, NMDA 20 min (FIG. 17)) is listed as “promoted neuronal survival”. Moreover, the ERK phosphorylation entry in test [5] is on record as “induced ERK phosphorylation”.
